This is an account of results in paper PMC6214487 (Journal of drug design and research, 2018).

For data set [1], the system named is HIV-1 isolates from subtypes A, B, and C. The data set can be described thus: Replication in PBMCs, summary over the three isolates tested. Format: cell-based. The note with it: read-out: Median IC50.
Data set [2] is described as follows: Toxicity to PBMCs, MTS assay. The conditions noted are these: human, primary peripheral blood mononuclear cells (PBMCs).
The test system of the next data set is PBMCs. As to the kind of experiment: Toxicity to PBMCs, MTS assay. The note with it: for Therapeutic Index (CC50/IC50): calculated using the median IC50 across all three isolates.
Another data set deals with HIV-1 92RW025. The data set can be described thus: Replication of primary isolate in PBMCs. It counts as cell-based. The conditions noted are these: read-out: IC50 HIV-1 92RW025 Clade A; primary human PBMCs.
For the next data set, the system named is HIV-1 JR-CSF. The data set can be described thus: Replication of primary isolate in PBMCs. The note with it: read-out: IC50 HIV-1 JR-CSF Clade B; primary human PBMCs. Format: cell-based.
The next data set concerns HIV-1 93MW965. As to the kind of experiment: Replication of primary isolate in PBMCs. It counts as cell-based. The note with it: read-out: IC50 HIV-1 93MW965 Clade C; primary human PBMCs.
Data set [3] deals with HIV-1 pseudovirus CA wild-type. As to the kind of experiment: organism not typed. Format: cell-based. The note with it: for IC50: read-out: IC50, Wild-type virus.
Data set [4] concerns HIV-1 pseudovirus CA N57A. As to the kind of experiment: organism not typed. The conditions noted are these: for IC50: read-out: IC50, CA N57A virus. It counts as cell-based.
Data set [5] relates to HIV-1 pseudovirus CA Q63A. The data set can be described thus: organism not typed. It counts as cell-based. The conditions noted are these: for IC50: read-out: IC50, CA Q63A virus.
Data set [6] concerns HIV-1 pseudovirus CA K70A. As to the kind of experiment: organism not typed. It counts as cell-based. The note with it: for IC50: read-out: IC50, CA K70A virus.
The subject of data set [7] is HIV-1 pseudovirus CA N74D. As to the kind of experiment: organism not typed. It counts as cell-based. The note with it: for IC50: read-out: IC50, CA N74D virus.
Data set [8] relates to HIV-1 pseudovirus CA P90A. The data set can be described thus: organism not typed. Format: cell-based. The conditions noted are these: for IC50: read-out: IC50, CA P90A virus.
The test system of data set [9] is VSV-G pseudotyped HIV-1 in TZM-bl cells. It counts as cell-based.
Another data set has as its target purified recombinant RT (Human immunodeficiency virus type 1 group M subtype B, UniProt P04585). The data set can be described thus: Colorimetric reverse transcriptase assay kit. The note with it: CX06 15 μM, PF-74 1.5 μM, TMC278 1 nM, relative to DMSO.
For data set [10], the system named is HIV-1JR-FL envelope pseudotyped virus. As to the kind of experiment: Single-round infection assay, early-stage events. The note with it: compound present at infection of target cells, luciferase.
Data set [11] has as its target HIV-1 NL4-3 disulfide stabilized CA hexamer (HIV-1 NL4-3). The data set can be described thus: SPR.
A further data set has as its system 293T cells. Format: cell-based, human.
Another data set deals with U87.CD4. cells. Format: cell-based, human.
In data set [12] the test system is HIV-1JR-FL Envpseudotyped viruses. As to the kind of experiment: Viral production by p24 quantitation. Format: cell-based. The conditions noted are these: 20 μM, relative to DMSO.
Data set [13] concerns AMLV Envpseudotyped HIV-1. It counts as cell-based. The note with it: single round infection assay.
Data set [14] deals with VSV-pseudotyped HIV-1 virus. It counts as cell-based.
For data set [15], the system named is HIV-1JR-FLEnv infected U87.CD4.CCR5 cells. As to the kind of experiment: Q-PCR analysis of viral DNA. It counts as cell-based. The note with it: CX06 15 μM.
The next data set concerns the target HIV-1 CA (Human immunodeficiency virus type 1 group M subtype B, UniProt P12493). The note with it: capsid 30 μM, compound 50 μM, compared to DMSO.
[16] abbreviates: Human immunodeficiency virus 1, PBMC.

Like-named read-outs stand apart in the source and are kept apart here.

For the compound `CN(C(=O)C(Cc1ccccc1)NC(=O)Cc1cnn(C(F)F)c1)c1ccccc1` (stereo not shown) [CX04, 2-(2-(1-(difluoromethyl)-1H-pyrazol-4-yl)acetamido)-N-methyl-N,3-diphenylpropanamide], the concentration for half-maximal inhibition (IC50) in data set [1] (setting [16]) was 17.1 ± 2.7 µM. For the same compound, in data set [2], the half-maximal cytotoxic concentration (CC50) was above 100 µM. The “Therapeutic Index (CC50/IC50)” value with PBMCs is above 5.84.

For `Cc1[nH]c2ccccc2c1CC(=O)N[C@@H](Cc1ccccc1)C(=O)N(C)c1ccccc1` [PF-74, reference compound], the half-maximal inhibitory concentration (IC50) in the data set on HIV-1 92RW025 is 1.5 ± 0.9 µM; in the data set on HIV-1 JR-CSF, 0.6 ± 0.2 µM; in the data set on HIV-1 93MW965, 0.6 ± 0.1 µM; in data set [1] (over the three isolates tested, PBMCs), 0.9 ± 0.5 µM; in data set [3] (single-round infection) it was 0.22 ± 0.05 µM; in data set [4] (single-round infection), 0.25 ± 0.04 µM. Besides, the IC50 in data set [5] (single-round infection) worked out at 0.4 ± 0.05 µM; in data set [6] (single-round infection) it was 0.25 ± 0.08 µM; in data set [7] (single-round infection) it was 0.5 ± 0.1 µM; in data set [8] (single-round infection) it was 0.21 ± 0.04 µM. In addition, the “Nuclear import of INsfGFP complexes” value in [9] is “efficiently inhibited the appearance of INsfGFP spots in the nucleus”. The compound also had a CC50 in the data set on PBMCs (MTS assay, PBMCs) of 90.5 ± 5.9 µM. Further, the “Effect on RT activity in vitro” value at purified recombinant RT was “no effect on RT activity”. Moreover, in data set [10], the “Effect on early-stage events, infectivity of target cells” value is “dual-stage inhibition profile”.

With `Cc1ccnc2c1NC(=O)c1cccnc1N2C1CC1` [Nevirapine], the “Nuclear import of INsfGFP complexes” value in data set [9] was “without effect”.

In the case of “NUP153 1407-1423 peptide (from UniProt P49790 1407-1423)”, the equilibrium dissociation constant (Kd) in data set [11] worked out at 202 µM.

On to `CCn1ncc(CC(=O)NC(Cc2ccccc2)C(=O)N(C)c2ccccc2)c1C(F)F` (stereo not shown) [CX06, 2-(2-(5-(difluoromethyl)-1-ethyl-1H-pyrazol-4-yl)acetamido)-N-methyl-N,3-diphenylpropanamide], for which the concentration for half-maximal inhibition (IC50) in [1] (setting [16]) stood at 5.9 ± 1 µM; in data set [3], 3.1 ± 0.5 µM; in data set [4] it was 4.3 ± 0.5 µM; in data set [5], 21.4 ± 1.4 µM; in data set [6] it was 3.2 ± 0.3 µM; in data set [7], 2.4 ± 0.7 µM. Besides, the IC50 in data set [8] is 3.1 ± 0.5 µM. Also, the “Fold increase, Wild-type virus” value in data set [3] (IC50 relative to wild-type) is recorded as 1. Besides, the “Fold increase, CA N57A virus” value in data set [4] (IC50 relative to wild-type) came to 1.4. Besides, the “Fold increase, CA Q63A virus” value in data set [5] (IC50 relative to wild-type) stood at 6.9. Moreover, the “Fold increase, CA K70A virus” value in data set [6] (IC50 relative to wild-type) is reported as 1.03. Moreover, the “Fold increase, CA N74D virus” value in data set [7] (IC50 relative to wild-type) is reported as 0.8. The “Fold increase, CA P90A virus” value in data set [8] (IC50 relative to wild-type) is 1. Besides, the Cytotoxicity entry with 293T cells and in the data set with U87.CD4. cells was “not cytotoxic” throughout. For the same compound, the “Viral production, p24 content” value in data set [12] is “decreasing the amount of virus released from the cells”. Also, in data set [13], the “Inhibition of AMLV Env pseudotyped HIV-1 infection” value is reported as “almost identical potency as when the HIV-1JR-FLEnv was used”. The “Time of addition at which compound is effective” value in [14] is at most 6 hours post-infection. Further, the 2-LTR circles result in data set [15] (24 h) is reported as “significantly affected”. The “Early RT products (RU5)” value in [15] (48 h) is listed as “slightly diminished”. Moreover, the “Integrated pro-virus (Alu-PCR)” value in [15] (48 h) is recorded as “significantly affected”. Besides, the “Late RT products (U5Ψ)” value in data set [15] (48 h) is recorded as “significantly affected”. In addition, the “Nuclear import of INsfGFP complexes” value in data set [9] is reported as “efficiently inhibited the appearance of INsfGFP spots in the nucleus”. Also, at HIV-1 CA, the “Effect on capsid assembly, turbidity at 350 nm” value is recorded as “reduced the multimerization of HIV-1 CA”. In addition, in data set [2], the half-maximal cytotoxic concentration (CC50) is above 100 µM. In addition, in the data set on PBMCs, the “Therapeutic Index (CC50/IC50)” value is given as above 17.0. On purified recombinant RT, the “Effect on RT activity in vitro” value is given as “no effect on RT activity”.

As to `CC(C)c1nc2c(n1CC(=O)NC(Cc1ccccc1)C(=O)N(C)c1ccccc1)CCCC2` (stereo not shown) [CX03, 2-(2-(2-isopropyl-4,5,6,7-tetrahydro-1H-benzo[d]imidazol-1-yl)acetamido)-N-methyl-N,3-diphenylpropanamide], in data set [1] (setting [16]), the IC50 came out at 5.9 ± 0.9 µM. The compound also displayed a CC50 in [2] above 100 µM. Further, the “Therapeutic Index (CC50/IC50)” value in the data set on PBMCs was above 16.9.

Turning to `CN(C(=O)C(Cc1ccccc1)NC(=O)Cc1cnn(C)c1C(F)(F)F)c1ccccc1` (stereo not shown) [CX05, N-methyl-2-(2-(1-methyl-5-(trifluoromethyl)-1H-pyrazol-4-yl)acetamido)-N,3-diphenylpropanamide], the IC50 in data set [1] (setting [16]) was determined as 18 ± 4.6 µM. Moreover, the 50% cytotoxic concentration (CC50) in [2] was above 100 µM. The “Therapeutic Index (CC50/IC50)” value in the data set with PBMCs was above 5.58.
